In ChEMBL document CHEMBL2034939, “Structure-based virtual screening of novel inhibitors of the uridyltransferase activity of Xanthomonas oryzae pv. oryzae GlmU” (Eur J Med Chem, 2012):
pIC50, pKi: −log10 of the molar value. ≈ marks a conversion by molar mass, not a printed value.

Experiments:
[1] = test system: Xanthomonas oryzae pv. oryzae; assay: Antibacterial activity against Xanthomonas oryzae pv. oryzae KS-1-21 after 36 to 48 hrs by broth microdilution assay; assay type: functional
[2] = Inhibition of Xanthomonas oryzae pv. oryzae KS-1-21 uridyltransferase domain of GlmU activity by ion-pair reverse-phase HPLC analysis
[3] = Competitive inhibition of Xanthomonas oryzae pv. Oryzae KS-1-21 GlmU using varying concentration of UTP and 500 uM GlcNAc-1-p by Lineweaver-Burk plot analysis
[4] = Uncompetitive inhibition of Xanthomonas oryzae pv. Oryzae KS-1-21 GlmU using 0.25 to 0.05 mM GlcNAc-1-p and 500 uM UTP by Lineweaver-Burk plot analysis
[5] = Uncompetitive inhibition of Xanthomonas oryzae pv. Oryzae KS-1-21 GlmU using varying concentration of UTP and 500 uM GlcNAc-1-p by Lineweaver-Burk plot analysis
[6] = Competitive inhibition of Xanthomonas oryzae pv. Oryzae KS-1-21 GlmU using 0.25 to 0.05 mM GlcNAc-1-p and 500 uM UTP by Lineweaver-Burk plot analysis
[7] = Noncompetitive inhibition of Xanthomonas oryzae pv. Oryzae KS-1-21 GlmU using varying concentration of UTP and 500 uM GlcNAc-1-p by Lineweaver-Burk plot analysis
[8] = Noncompetitive inhibition of Xanthomonas oryzae pv. Oryzae KS-1-21 GlmU using 0.25 to 0.05 mM GlcNAc-1-p and 500 uM UTP by Lineweaver-Burk plot analysis

SMILES | MIC [1] [µg/mL] | pIC50 [2] | also measured
COc1ccc(C(=O)/C=C/c2cn(CC(O)CN3CCCCC3)c3ccccc23)cc1OC (configuration not stated) | 82 (≈ 183 µM) | < 4.00 | –
O=C(CCCCC(=O)NNC(=O)COc1ccc2ccccc2c1)NNC(=O)COc1ccc2ccccc2c1 | 302 (≈ 557 µM) | 4.85 | pKi [3]: 5.09; pKi [4]: 5.08
CCN(CC)c1ccc(/C=C(\NC(=O)c2ccccc2)C(=O)N/N=C/c2cc(O)ccc2Br)cc1 | > 500 | 4.20 | –
Cc1ccc(OCC(=O)Nc2ccccc2C(=O)NC2CCCCC2)cc1 | > 500 | 4.07 | –
O=c1cc(-c2ccc(O)c(O)c2)oc2cc(O)cc(O)c12 [LUTEOLIN] | 186 (≈ 651 µM) | 6.09 | pKi [5]: 6.00; pKi [6]: 6.36
CCCCCOc1ccc(/C=N/NC(=O)c2nnn(-c3nonc3N)c2CN2CCCCCC2)cc1 | > 500 | 4.06 | –
Cc1cc(OCC(=O)NNC(=O)c2ccc(O)cc2O)cc(C)c1Cl | 420 (≈ 1150 µM) | 4.63 | pKi [7]: 5.05; pKi [8]: 4.71
CCOc1ccc(C(=O)NCCCCCCCNC(=O)c2ccc(OCC)cc2)cc1 | > 500 | 4.12 | –
